“And” between values parts separate entries of the source, which are not always exact repeats. Equal entries are not always repeated.
Key:
[1] = target: HER-2 (Homo sapiens, UniProt P04626); experiment: HER-2 inhibitory assay (ADP-Glo kinase assay)
Procedure: The ADP-Glo™ Kinase Assay was used for kinase activity detection, related kinases information: HER-2 (ab60866, Abcam), with a concentration of 100 ng/mL. Target compounds were dissolved in DMSO to obtain drug solutions with different concentrations, and the compound concentrations in the final reaction system (100 μL) were 1 nM, 20 nM, 40 nM, 80 nM, and 100 nM, respectively. 10μL of the solution containing compounds was transferred to a 96-well plate, then added 40 μL of 1 × kinase buffer (50 mM HEPES, pH 7.5) to each well, and mixed the mixture in the 96-well plate on a shaker for 10 min. Next, added 25 μL of ADP-Glo™ reagent to the above wells, mixed and incubated for another 40 min. Distributed 10 μL kinase detection reagent to the reaction and incubated for 30 min. Finally, the full-wavelength microplate reader was used to record the OD value.

[2] = system: pancreatic (Panc-1) cancer cell line; experiment: Antiproliferative assay, Panc-1; assay type: cell-based; conditions: Homo sapiens, read-out: Antiproliferative activity IC50 ± SEM, Panc-1
Text: (§1) The MTT assay ([Al-Wahaibi et al., 2022]; [Mahmoud et al., 2023]) was employed to assess the antiproliferative effects of compounds 3a-h and 5a-g on four human cancer cell lines: colon (HT-29) cancer, pancreatic (Panc-1) cancer, lung (A-549) cancer, and breast (MCF-7) cancer cell lines. Erlotinib was applied as a reference. Table 1 presents the median inhibitory concentration (IC50) and average IC50 (GI50) values for each compound evaluated on the four cancer cell lines.
(§2) Compounds 3a-h and 5a-g were tested for their antiproliferative activities on four human cancer cell lines: colon (HT-29), pancreatic (Panc-1), lung (A-549), and breast (MCF-7) using the MTT assay ([Al-Wahaibi et al., 2022]; [Mahmoud et al., 2023]). Erlotinib was applied as a reference.
(§3) To explore the antiproliferative potential of compounds propidium iodide fluorescence assay was performed using different cell lines such as Panc-1 (pancreas cancer cell line), MCF-7 (breast cancer cell line), HT-29 (colon cancer cell line) and A-549 (epithelial cancer cell line), respectively. To calculate the total nuclear DNA, a fluorescent dye (propidium iodide, PI) is used which can attach to the DNA, thus offering a quick and precise technique. PI cannot pass through the cell membrane and its signal intensity can be considered as directly proportional to quantity of cellular DNA. Cells whose cell membranes are damaged or have changed permeability are counted as dead ones. The assay was performed by seeding the cells of different cell lines at a density of 3000-7500 cells/well (in 200μl medium) in culture plates followed by incubation for 24h at 37 °C in humidified 5%CO2/95% air atmospheric conditions. The medium was removed; the compounds were added to the plates at 10 μM concentrations (in 0.1% DMSO) in triplicates, followed by incubation for 48h. DMSO (0.1%) was used as control. After incubation, medium was removed followed by the addition of PI (25 μl, 50μg/mL in water/medium) to each well of the plates. At -80 °C, the plates were allowed to freeze for 24 h, followed by thawing at 25 °C. A fluorometer (Polar-Star BMG Tech) was used to record the readings at excitation and emission wavelengths of 530 and 620 nm for each well. The percentage cytotoxicity of compounds was calculated using the following formula: […]

[3] = target: EGFR (Homo sapiens, UniProt P00533); experiment: EGFR inhibitory assay (EGFR-TK test); conditions: for IC50: EGFR inhibition IC50 ± SEM; for Fold less effective than erlotinib, EGFR inhibition: ratio to erlotinib IC50
Sequence of EGFR (P00533 669-1210): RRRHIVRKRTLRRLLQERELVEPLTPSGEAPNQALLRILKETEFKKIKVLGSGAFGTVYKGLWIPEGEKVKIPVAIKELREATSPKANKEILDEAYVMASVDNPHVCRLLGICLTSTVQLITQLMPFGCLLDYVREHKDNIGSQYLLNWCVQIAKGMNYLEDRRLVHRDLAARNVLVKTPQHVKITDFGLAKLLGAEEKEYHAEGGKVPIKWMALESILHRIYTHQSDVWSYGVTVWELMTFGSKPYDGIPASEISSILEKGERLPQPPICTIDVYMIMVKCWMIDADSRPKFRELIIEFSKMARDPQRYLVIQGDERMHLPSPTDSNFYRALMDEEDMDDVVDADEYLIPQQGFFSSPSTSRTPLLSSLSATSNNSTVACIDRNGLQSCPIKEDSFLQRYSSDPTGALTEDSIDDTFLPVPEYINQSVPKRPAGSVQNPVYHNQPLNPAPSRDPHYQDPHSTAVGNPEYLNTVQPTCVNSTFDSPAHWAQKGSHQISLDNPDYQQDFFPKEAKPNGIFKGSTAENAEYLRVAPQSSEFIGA
Procedure: 5ʹ upstream to the EGFR sequence comprised a sequence that encoded (His)6. Sf-9 cells were infected for 72h for protein expression. The pellets of Sf-9 cells were solubilized in a buffer containing sodium vanadate (100 μM), aprotinin (10 μg/mL), triton (1%), HEPES buffer(50mM), ammonium molybdate (10 μM), benzamidine HCl (16 μg/mL), NaCl (10 mM),leupeptin (10 μg/mL) and pepstatin (10 μg/mL) at 0°C for 20 min at pH 7.4, followed by centrifugation for 20 min. To eliminate the nonspecifically bound material, a Ni-NTA super flow packed column was used to pass through and wash the crude extract supernatant first with 10mM and then with 100 mM imidazole. Histidine-linked proteins were first eluted with 250 and then with 500 mM imidazole subsequent to dialysis against NaCl (50 mM), HEPES (20 mM), glycerol (10%) and 1 μg/mL each of aprotinin, leupeptin and pepstatin for 120 min. The purification was performed either at 4 °C or on ice. To record autophosphorylation level, EGFR kinase assay was carried out on the basis of DELFIA/Time-Resolved Fluorometry. […] Each compound (10 μL) was incubated with recombinant enzyme (10 μL, 5 ng for EGFR, 1:80 dilution in 100 mM HEPES) for 10 min at 25 °C, subsequent to the addition of 5X buffer (10 μL, containing 2 mM MnCl2, 100 μM Na3VO4, 20 mM HEPES and 1 mM DTT) and ATP-MgCl2 (20 μL, containing 0.1 mM ATP and 50 mM MgCl2) and incubation for 1h. The negative and positive controls were included in each plate by the incubation of enzyme either with or without ATP-MgCl2. The liquid was removed after incubation and the plates were washed thrice using a wash buffer. The Europium-tagged antiphosphotyrosine antibody (75 μL, 400 ng) was added to each well followed by incubation of 1h and then washing of the plates using buffer. […] The autophosphorylation percentage inhibition by compounds was calculated using the following equation:
The majority of signals detected by antiphosphotyrosine antibody were from EGFR because the enzyme preparation contained low impurities.

[4] = Cell viability assay (MTT), normal mammary cells; conditions: human, MCF-10A normal mammary epithelial cells
Procedure: (§4) MTT assay was performed to investigate the effect of the synthesized compounds on mammary epithelial cells (MCF-10A). The cells were propagated in medium consisting of Ham's F-12 medium/ Dulbecco's modified Eagle's medium (DMEM) (1:1) supplemented with 10% foetal calf serum, 2 mM glutamine, insulin (10 μg/mL), hydrocortisone (500 ng/mL) and epidermal growth factor (20 ng/mL). Trypsin ethylenediamine tetra acetic acid (EDTA) was used to passage the cells after every 2-3 days. 96-well flat-bottomed cell culture plates were used to seed the cells at a density of 10^4 cells mL^-1. The medium was aspirated from all the wells of culture plates after 24 h followed by the addition of synthesized compounds (in 200 μL medium to yield a final concentration of 0.1% (v/v) dimethyl sulfoxide) into individual wells of the plates. Four wells were designated to a single compound. The plates were allowed to incubate at 37°C for 96 h. Afterwards, the medium was aspirated and 3-[4,5-dimethylthiazol-2-yl]-2,5-diphenyltetrazolium bromide (MTT) (0.4 mg/mL) in medium was added to each well and subsequently incubated for 3 h. The medium was aspirated and 150 μL dimethyl sulfoxide (DMSO) was added to each well. The plates were vortexed followed by the measurement of absorbance at 540 nm on a microplate reader.

[5] = system: lung (A-549) cancer cell line; experiment: Antiproliferative assay, A-549; assay type: cell-based; conditions: Homo sapiens, A549; read-out: Antiproliferative activity IC50 ± SEM, A-549
Text: as §1, §2, §3

[6] = system: breast (MCF-7) cancer cell line; experiment: Antiproliferative assay, MCF-7; assay type: cell-based; conditions: Homo sapiens, MCF7; read-out: Antiproliferative activity IC50 ± SEM, MCF-7
Text: as §1, §2, §3

[7] = system: four human cancer cell lines (A-549, MCF-7, Panc-1, HT-29); experiment: Antiproliferative assay, average over four cancer cell lines; assay type: cell-based; conditions: for GI50: Homo sapiens, average IC50 over the four cancer cell lines; for Potency reduction (fold) compared to 3d (GI50): ratio to 3d GI50 = 41 nM
[8] = system: colon (HT-29) cancer cell line; experiment: Antiproliferative assay, HT-29; assay type: cell-based; conditions: Homo sapiens, read-out: Antiproliferative activity IC50 ± SEM, HT-29
[9] = in vitro; conditions: human
Procedure: as §4

[10] = system: Bcl-2; experiment: Bcl-2 level assay; conditions: MCF-7 cells
Procedure: Mix all reagents thoroughly without foaming before use. Wash the microwells twice with approximately 300 μL Wash Buffer per well with thorough aspiration of microwell contents between washes. Take caution not to scratch the surface of the microwells. After the last wash, empty the wells and tap microwell strips on absorbent pad or paper towel to remove excess Wash Buffer. Use the microwell strips immediately after washing or place upside down on a wet absorbent paper for not longer than 15 minutes. […] Add 100 μL of Sample Diluent in duplicate to all standard wells and to the blank wells. […] Add 100 μL of Sample Diluent, in duplicate, to the blank wells. Add 80 μL of Sample Diluent, in duplicate, to the sample wells. Add 20 μL of each Sample, in duplicate, to the designated wells. Add 50 μL of diluted biotin-conjugate to all wells, including the blank wells. Cover with a plate cover and incubate at room temperature, on a microplate shaker at 100 rpm if available, for 2 hours. Remove plate cover and empty the wells. Wash microwell strips 3 times as described in step 2. Add 100 μL of diluted Streptavidin-HRP to all wells, including the blank wells. Cover with a plate cover and incubate at room temperature, on a microplate shaker at 100 rpm if available, for 1 hour. Remove plate cover and empty the wells. Wash microwell strips 3 times as described in step 2. […] Pipette 100 μl of mixed TMB Substrate Solution to all wells, including the blanks. Incubate the microwell strips at room temperature (18° to 25°C) for about 15 minutes, if available on a rotator set at 100 rpm. Avoid direct exposure to intense light. The point, at which the substrate reaction is stopped, is often determined by the ELISA reader. Many ELISA readers record absorbance only up to 2.0 O.D. Therefore, the color development within individual microwells must be watched by the person running the assay and the substrate reaction stopped before positive wells are no longer properly detectable. Stop the enzyme reaction by quickly pipetting 100 μL of Stop Solution into each well, including the blank wells. It is important that the Stop Solution is spread quickly and uniformly throughout the microwells to completely inactivate the enzyme. Results must be read immediately after the Stop Solution is added or within one hour if the microwell strips are stored at 2 - 8°C in the dark. Read absorbance of each microwell on a spectrophotometer using 450 nm as the primary wavelength.

[11] = system: Bax; experiment: Bax level assay; conditions: MCF-7 cells
Procedure: Bring all reagents, except the human Bax-α Standard, to room temperature for at least 30 minutes prior to opening. The human Bax-α Standard solution should not be left at room temperature for more than 10 minutes. All standards, controls and samples should be run in duplicate. Refer to the Assay Layout Sheet to determine the number of wells to be used and put any remaining wells with the desiccant back into the pouch and seal the ziploc. Store unused wells at 4 °C. Pipet 100 μL of Assay Buffer into the S0 (0 pg/mL standard) wells. Pipet 100 μL of Standards #1 through #6 into the appropriate wells. Pipet 100 μL of the Samples into the appropriate wells. Tap the plate gently to mix the contents. Seal the plate and incubate at room temperature on a plate shaker for 1 hour at ~500 rpm. Empty the contents of the wells and wash by adding 400 μL of wash solution to every well. Repeat the wash 4 more times for a total of 5 washes. After the final wash, empty or aspirate the wells and firmly tap the plate on a lint free paper towel to remove any remaining wash buffer. Pipet 100 μL of yellow Antibody into each well, except the Blank. Seal the plate and incubate at room temperature on a plate shaker for 1 hour at ~500 rpm. Empty the contents of the wells and wash by adding 400 μL of wash solution to every well. Repeat the wash 4 more times for a total of 5 washes. After the final wash, empty or aspirate the wells and firmly tap the plate on a lint free paper towel to remove any remaining wash buffer. Add 100 μL of blue Conjugate to each well, except the Blank. Seal the plate and incubate at room temperature on a plate shaker for 30 minutes at ~500 rpm. Empty the contents of the wells and wash by adding 400 μL of wash solution to every well. Repeat the wash 4 more times for a total of 5 washes. After the final wash, empty or aspirate the wells and firmly tap the plate on a lint free paper towel to remove any remaining wash buffer. Pipet 100 μL of Substrate Solution into each well. Incubate for 30 minutes at room temperature on a plate shaker at ~500 rpm. Pipet 100 μL Stop Solution to each well. Blank the plate reader against the Blank wells, read the optical density at 450 nm. Calculate the average net Optical Density (OD) bound for each standard and sample by subtracting the average Blank OD from the average OD for each standard and sample. Using linear graph paper, plot the Average Net OD for each standard versus Bax concentration in each standard. Approximate a straight line through the points. The concentration of Bax in the unknowns can be determined by interpolation.

[12] = system: Cytochrome C; experiment: Cytochrome C assay; conditions: MCF-7 cells
Procedure: This lysate was diluted in Standard Diluent Buffer over the range of the assay and measured for cytochrome C content. (Cells are Plated in cells/well in a volume of 100µl complete growth medium + 100 µl of the tested compound + 50 µl of 1X biotin conjugated antibody+ 100 µl of 1X streptavidin-HRP+ 100 µL TMB substrate solution of per well in a 96-well plate for 24 hours before assay).

[13] = system: Caspase-9; experiment: Caspase-9 activation assay; assay type: cell-based, human; conditions: MCF-7 cells
Procedure: To elucidate the apoptotic mechanism of compounds 3d and 5a, whether via the intrinsic or extrinsic pathway, their impact on caspase-8 and caspase-9 was evaluated.
RPMI 1640 with 10% FBS was used to assist the cells grow at 37 °C, and then the cells were treated with the compounds being studied to check the activity of caspase-3, -8, and -9 ([Hisham et al., 2019]). Refer to Supplementary Appendix A.
Cells were obtained from American Type Culture Collection, cells were grown in RPMI 1640 containing 10% fetal bovine serum at 37°C, stimulated with the compounds to be tested for caspase8, and lysed with Cell Extraction Buffer. This lysate was diluted in Standard Diluent Buffer over the range of the assay and measured for human active caspase-8 content. (Cells are Plated in a density of 1.2 – 1.8 × 10,000 cells/well in a volume of 100µl complete growth medium + 100 ul of the tested compound per well in a 96-well plate for 24 hours before the enzyme assay for Tubulin.). The absorbance of each microwell was read on a spectro-photometer at 450 nm. A standard curve is prepared from 7human Caspase-8 standard dilutions and human Caspase-8 concentration determined.

Sequence of HER-2 (P04626 676-1255 limits assumed): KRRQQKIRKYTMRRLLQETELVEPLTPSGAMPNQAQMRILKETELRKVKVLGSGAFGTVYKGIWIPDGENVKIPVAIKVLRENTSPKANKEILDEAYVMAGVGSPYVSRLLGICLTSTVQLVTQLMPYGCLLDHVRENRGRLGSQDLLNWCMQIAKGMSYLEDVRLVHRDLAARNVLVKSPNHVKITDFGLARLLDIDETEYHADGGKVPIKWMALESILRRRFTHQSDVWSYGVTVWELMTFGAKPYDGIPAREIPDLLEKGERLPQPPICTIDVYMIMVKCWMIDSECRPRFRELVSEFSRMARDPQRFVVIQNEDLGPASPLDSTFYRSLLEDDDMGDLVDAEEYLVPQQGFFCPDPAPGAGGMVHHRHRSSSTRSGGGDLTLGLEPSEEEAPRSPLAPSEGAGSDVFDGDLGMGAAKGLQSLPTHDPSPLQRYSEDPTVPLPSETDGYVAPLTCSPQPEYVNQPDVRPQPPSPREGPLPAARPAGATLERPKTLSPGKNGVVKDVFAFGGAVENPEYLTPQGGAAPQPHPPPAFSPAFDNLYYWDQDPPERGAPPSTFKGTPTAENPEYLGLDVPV

## Cc1ccc(S(=O)(=O)N/N=C/c2c(O)c3cc(C)ccc3[nH]c2=O)cc1 [Compound 3c, (E)-N'-((4-hydroxy-6-methyl-2-oxo-1,2-dihydroquinolin-3-yl)methylene)-4-methylbenzenesulfonohydrazide]
[1]
  IC50: 49 ± 3 nM
[2]
  IC50: 53 ± 5 nM
[3]
  IC50: 95 nM and 99 nM
  Fold less effective than erlotinib, EGFR inhibition: 1.2
[4]
  viability at 4 days, 50 µM: 86%
[5]
  IC50: 50 ± 5 nM
[6]
  IC50: 48 ± 4 nM
[7]
  GI50: 51 nM
  Potency reduction (fold) compared to 3d (GI50): 1.3
[8]
  IC50: 52 ± 4 nM

## COc1ccc2[nH]c(=O)c(/C=N/NS(=O)(=O)c3ccc(C)cc3)c(O)c2c1 [Compound 3b, (E)-N'-((4-hydroxy-6-methoxy-2-oxo-1,2-dihydroquinolin-3-yl)methylene)-4-methyl benzenesulfonohydrazide]
[2]
  IC50: 56 ± 5 nM
[4]
  viability at 4 days, 50 µM: 92%
[5]
  IC50: 56 ± 5 nM
[6]
  IC50: 52 ± 5 nM
[7]
  GI50: 56 nM
  Potency reduction (fold) compared to 3d (GI50): 1.4
[8]
  IC50: 58 ± 5 nM

## Cn1c(=O)c(/C=N/Nc2ccc([N+](=O)[O-])cc2[N+](=O)[O-])c(O)c2ccccc21 [Compound 5e, (E)-3-((2-(2,4-Dinitrophenyl)hydrazono)methyl)-4-hydroxy-1-methyl quinolin-2(1H)-one]
[2]
  IC50: 76 ± 7 nM
[5]
  IC50: 76 ± 7 nM
[6]
  IC50: 74 ± 7 nM
[7]
  GI50: 76 nM
[8]
  IC50: 78 ± 7 nM
[9]
  viability at 4 days, 50 µM: 87%

## CCn1c(=O)c(/C=N/NS(=O)(=O)c2ccc(C)cc2)c(O)c2ccccc21 [Compound 3e, (E)-N'-((1-Ethyl-4-hydroxy-2-oxo-1,2-dihydroquinolin-3-yl)methylene)-4-methyl benzenesulfonohydrazide]
[2]
  IC50: 64 ± 6 nM
[4]
  viability at 4 days, 50 µM: 89%
[5]
  IC50: 62 ± 6 nM
[6]
  IC50: 61 ± 6 nM
[7]
  GI50: 63 nM
[8]
  IC50: 64 ± 6 nM

## Cc1ccc(S(=O)(=O)N/N=C/c2c(O)c3ccc(C)cc3[nH]c2=O)cc1 [Compound 3g, (E)-N'-((4-hydroxy-7-methyl-2-oxo-1,2-dihydroquinolin-3-yl)methylene)-4-methyl benzenesulfonohydrazide]
[2]
  IC50: 94 ± 9 nM
[4]
  viability at 4 days, 50 µM: 87%
[5]
  IC50: 94 ± 9 nM
[6]
  IC50: 90 ± 9 nM
[7]
  GI50: 94 nM
  Potency reduction (fold) compared to 3d (GI50): at least 2.3
[8]
  IC50: 96 ± 9 nM

## Cc1ccc2c(O)c(/C=N/Nc3ccc([N+](=O)[O-])cc3[N+](=O)[O-])c(=O)[nH]c2c1 [Compound 5f, (E)-3-((2-(2,4-Dinitrophenyl)hydrazono)methyl)-4-hydroxy-7-methyl quinolin-2(1H)-one]
[2]
  IC50: 86 ± 8 nM
[5]
  IC50: 85 ± 8 nM
[6]
  IC50: 83 ± 8 nM
[7]
  GI50: 85 nM
[8]
  IC50: 86 ± 8 nM
[9]
  viability at 4 days, 50 µM: 90%

## COc1ccc2[nH]c(=O)c(/C=N/Nc3ccc([N+](=O)[O-])cc3[N+](=O)[O-])c(O)c2c1 [Compound 5c, (E)-3-((2-(2,4-Dinitrophenyl)hydrazono)methyl)-4-hydroxy-6-methoxy quinolin-2(1H)-one]
[2]
  IC50: 69 ± 6 nM
[5]
  IC50: 65 ± 6 nM
[6]
  IC50: 62 ± 6 nM
[7]
  GI50: 66 nM
[8]
  IC50: 68 ± 6 nM
[9]
  viability at 4 days, 50 µM: 89%

## CN[C@@H]1C[C@H]2O[C@@](C)([C@@H]1OC)n1c3ccccc3c3c4c(c5c6ccccc6n2c5c31)C(=O)NC4 [Staurosporine, reference compound]
[10]
  Bcl-2 Conc: 1.00 ng/mL
[11]
  Bax Conc: 290 ± 2 pg/mL
[11]; listed as staurosporine
  Bax Conc: 290 pg/mL
[12]
  Cytochrome C Conc: 0.50 ng/mL
[13]
  Caspase-9 Conc: 20 ± 1 ng/mL

## Cc1ccc2[nH]c(=O)c(/C=N/Nc3ccc([N+](=O)[O-])cc3[N+](=O)[O-])c(O)c2c1 [Compound 5b, (E)-3-((2-(2,4-Dinitrophenyl)hydrazono)methyl)-4-hydroxy-6-methyl quinolin-2(1H)-one]
[1]
  IC50: 56 ± 4 nM
[2]
  IC50: 54 ± 5 nM
[3]
  IC50: 106 ± 7 nM
[4]
  viability at 4 days, 50 µM: 90%
[5]
  IC50: 52 ± 5 nM
[6]
  IC50: 50 ± 5 nM
[7]
  GI50: 53 nM
[8]
  IC50: 54 ± 5 nM

## Cc1cccc2c(O)c(/C=N/Nc3ccc([N+](=O)[O-])cc3[N+](=O)[O-])c(=O)[nH]c12 [Compound 5d, (E)-3-((2-(2,4-Dinitrophenyl)hydrazono)methyl)-4-hydroxy-8-methyl quinolin-2(1H)-one]
[2]
  IC50: 74 ± 7 nM
[5]
  IC50: 71 ± 7 nM
[6]
  IC50: 67 ± 6 nM
[7]
  GI50: 72 nM
[8]
  IC50: 74 ± 7 nM
[9]
  viability at 4 days, 50 µM: 92%

## O=c1[nH]c2ccc(Cl)cc2c(O)c1/C=N/Nc1ccc([N+](=O)[O-])cc1[N+](=O)[O-] [Compound 5g, (E)-6-Chloro-3-((2-(2,4-dinitrophenyl)hydrazono)methyl)-4-hydroxy quinolin-2(1H)-one]
[2]
  IC50: 82 ± 8 nM
[5]
  IC50: 81 ± 8 nM
[6]
  IC50: 78 ± 7 nM
[7]
  GI50: 81 nM
[8]
  IC50: 82 ± 8 nM
[9]
  viability at 4 days, 50 µM: 91%

## Cc1ccc(S(=O)(=O)N/N=C/c2c(O)c3cc(Cl)ccc3[nH]c2=O)cc1 [Compound 3f, (E)-N'-((6-chloro-4-hydroxy-2-oxo-1,2-dihydroquinolin-3-yl)methylene)-4-methyl benzenesulfonohydrazide]
[1]
  IC50: 44 ± 3 nM
[2]
  IC50: 46 ± 4 nM
[3]
  IC50: 99 nM and 95 nM
  Fold less effective than erlotinib, EGFR inhibition: 1.2
[4]
  viability at 4 days, 50 µM: 90%
[5]
  IC50: 46 ± 4 nM
[6]
  IC50: 43 ± 4 nM
[7]
  GI50: 46 nM
[8]
  IC50: 48 ± 4 nM

## Cc1ccc(S(=O)(=O)N/N=C/c2c(O)c3ccccc3n(C)c2=O)cc1 [Compound 3a, (E)-N'-((4-hydroxy-1-methyl-2-oxo-1,2-dihydroquinolin-3-yl)methylene)-4-methylbenzenesulfonohydrazide]
[2]
  IC50: 94 ± 9 nM
[4]
  viability at 4 days, 50 µM: 90%
[5]
  IC50: 92 ± 9 nM
[6]
  IC50: 89 ± 8 nM
[7]
  GI50: 92 nM
  Potency reduction (fold) compared to 3d (GI50): at least 2.3
[8]
  IC50: 94 ± 9 nM

## Cc1ccc(S(=O)(=O)N/N=C/c2c(O)c3cccc(C)c3[nH]c2=O)cc1 [Compound 3h, (E)-N'-((4-hydroxy-8-methyl-2-oxo-1,2-dihydroquinolin-3-yl)methylene)-4-methyl benzenesulfonohydrazide]
[2]
  IC50: > 100 nM
[4]
  viability at 4 days, 50 µM: 90%
[5]
  IC50: > 100 nM
[6]
  IC50: > 100 nM
[7]
  GI50: > 100 nM
  Potency reduction (fold) compared to 3d (GI50): at least 2.3
[8]
  IC50: > 100 nM
